Values joined by “and” are separate entries in the source; they are usually repeats but may differ in a detail not shown here. Equal entries are not always repeated. Where two headings read alike, the source gives them in different places.
Assays:
[1] = Toxicological Risk Assessment of excipients in oral drops (MDI vs ADI); design: species or system children; conditions: Maximum Daily Therapeutic Dose up to 0.5 mg/kg/day; for MDI (for 2 years aged children): Trazodone HCl 1.5% oral solution; for MDI (for 6 years aged children): Trazodone HCl 3.0% oral solution
Method: The Toxicological Risk Assessment of the formulations was performed to evaluate the safety of the excipients employed in the two oral drops formulations for pediatric use.

[2] = cited from earlier work
Caco-2 permeability = format: in vitro ADME; conditions: human
Excerpt: (§1) Derivation of key parameters is described below.

[3] = Physical chemistry of trazodone; format: physicochemical
Excerpt: as §1

[4] = PBPK modelling (Simcyp Population-Based Simulator); conditions: ER; fitting of concentration-time data following a single oral dose of 300 mg ER trazodone
CYP3A4 = CYP3A4 (Homo sapiens, UniProt P08684); test: CYP3A4-mediated metabolism (retrograde calculation)
[5] = test system: children with insomnia affected by NDDs; test: Phase II trial in children with insomnia affected by NDDs; format: in vivo, human
Method: Three different doses, 0.25/0.4 and 0.5 mg/kg/day were administered at bedtime in fruit juice (in a volume of about 200 mL) in the pediatric population of from 2 to 17 years old.
A multi-centre, randomised, parallel-group, single-blind phase II trial was designed, based on the prediction described in the previous Example 3, to evaluate the pharmacokinetics and PKPD relationship of trazodone after single and repeated oral doses in children from 2 to years of age, suffering from insomnia, affected by neurodevelopmental disorders (NDDs: autism spectrum disorder, intellectual disability or attention deficit hyperactivity disorder). The single-blind phase II trial is still ongoing.
The primary objective of this study is to assess the pharmacokinetics (PK) of trazodone after single and repeated doses in patients aged from 2 to years.
Among the secondary objectives of this study, there are the establishment of the pharmacokinetic-pharmacodynamic (PKPD) relationship of trazodone, as assessed by actigraphy measures, and the definition of the dose rationale in children and adolescents aged from […] taking into account the therapeutic exposure range in adults.
The parent's diary will also be used in the evaluation of the results. This phase II clinical trial is designed to assess the PK and PD of 3 dose levels of trazodone in children with insomnia affected by NDDs. A minimum of 36 patients will be randomly assigned (at least 30 evaluable patients, 10 for each treatment arm; at least 10 evaluable patients aged 2 to years, 10 evaluable patients aged 6 to […], 10 evaluable patients aged 12 to years; at least 3 patients for each age and treatment arm).
Patients are initially assigned to one of the 3 treatment arms. Patients in treatment arms 2 and 3 will receive 0.25 mg/kg/day for 3 days followed by a higher maintenance dose for 7 days: • Treatment arm 1: 0.25 mg/kg/day (on days 1 through 10) • Treatment arm 2: 0.4 mg/kg/day (0.25 mg/kg/day on days 1 through 3 and 0.4 mg/kg/day on days 4 through 10) • Treatment arm 3: 0.5 mg/kg/day (0.25 mg/kg/day on days 1 through 3 and 0.5 mg/kg/day on days 4 through 10).
Patients qualifying for the participation in the study at visit 1 (day 1, randomisation—first dose) have been admitted to the clinic at 2 out of 3 visits, according to a patient-specific PK sampling scheme. Due to the requirement of sparse sampling, each patient will contribute a total of 5 PK samples.
Sleep latency and total sleeping time have been recorded by actigraphy starting from 3 consecutive days prior to visit 1 up to the end of the treatment.
An interim analysis has been performed after completion of 18 patients to assess whether data collected allows the determination of the relevant PK parameters with the appropriate precision. The 18 patients are so distributed according treatment arms: 3 patients in treatment arm 1, 5 patients in treatment arm 2, 10 patients in treatment arm 3.

human liver microsome = test: Additional HLM CLint (retrograde calculation); conditions: 30% of hepatic metabolism assigned to undefined pathways
Excerpt: as §1

[6] = Blood binding (E:P ratio, equilibrium dialysis); format: in vitro ADME
Excerpt: as §1

[7] = alternative value printed beside the first (EMA 2014; FDA 1998 USA; EFSA 2014; JECFA 1973)
[8] = first-listed value/reference (JECFA, SCF)

Chain of CYP3A4 (P08684 whole entry): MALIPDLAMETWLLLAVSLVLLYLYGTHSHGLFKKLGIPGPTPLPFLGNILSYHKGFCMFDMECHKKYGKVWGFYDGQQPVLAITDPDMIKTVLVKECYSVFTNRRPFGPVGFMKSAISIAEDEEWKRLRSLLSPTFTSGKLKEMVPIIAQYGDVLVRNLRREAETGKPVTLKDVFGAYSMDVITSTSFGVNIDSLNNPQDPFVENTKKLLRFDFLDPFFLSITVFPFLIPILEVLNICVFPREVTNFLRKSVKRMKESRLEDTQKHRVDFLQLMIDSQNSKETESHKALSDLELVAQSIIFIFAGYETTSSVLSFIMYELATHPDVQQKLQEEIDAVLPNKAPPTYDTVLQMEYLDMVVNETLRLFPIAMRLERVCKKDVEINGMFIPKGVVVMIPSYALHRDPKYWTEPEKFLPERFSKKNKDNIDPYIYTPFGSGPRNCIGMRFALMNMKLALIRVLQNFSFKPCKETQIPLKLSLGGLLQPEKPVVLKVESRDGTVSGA

Row | SMILES | MDI (for 2 years aged children) [1] [mg/kg/day] | MDI (for 6 years aged children) [1] [mg/kg/day] | ADI [2, 7] | ADI [2, 8] | further results
1 | O=C(O)CC(O)(CC(=O)O)C(=O)O [Citric acid anhydrous] | 0.17 | 0.08 |  |  | 
2 | O=C([O-])CN(CCN(CC(=O)[O-])CC(=O)O)CC(=O)O.[Na+].[Na+] [Disodium edetate] | 0.02 | 0.01 | 2.5 mg/kg/day | 1.9 mg/kg/day and 1.9 (ex- mg/kg/day | 
3 | C/C=C/C=C/C(=O)[O-].[K+] [K-Sorbate] |  |  | 11 mg/kg/day | 3 mg/kg/day | 
4 | CCCOC(=O)c1cc(O)c(O)c(O)c1 [Propyl gallate] | 0.03 | 0.02 | 0.5 mg/kg/day | 1.4 mg/kg/day | 
5 | CC(O)CO (stereo not shown) [Propylene glycol] | 10.00 | 5.00 | 50 mg/kg/day | 25 mg/kg/day | 
6 | O=C([O-])c1ccccc1.[Na+] [Sodium Benzoate] |  |  |  | 5 mg/kg/day | 
7 | [Na+].[OH-] [Sodium hydroxide] | 0.04 | 0.02 |  | Not limited | 
8 | OC[C@H]1O[C@H](O[C@]2(CCl)O[C@H](CCl)[C@@H](O)[C@@H]2O)[C@H](O)[C@@H](O)[C@H]1Cl [Sucralose] | 0.05 | 0.03 | 5 mg/kg/day and 5 (USA) mg/kg/day | 15 (UE) mg/kg/day and 15 mg/kg/day and 15 (UE)^ mg/kg/day | 
9 | OC[C@H]1O[C@@](CO)(O[C@H]2O[C@H](CO)[C@@H](O)[C@H](O)[C@H]2O)[C@@H](O)[C@@H]1O [Sucrose] |  |  |  | GRAS | 
10 | COC(=O)c1ccc(O)cc1 [methyl parahydroxybenzoate] |  |  |  | 10 mg/kg/day | 
11 | COCCc1ccc(OCC(O)CNC(C)C)cc1 (stereo not shown) [metoprolol] |  |  |  |  | Papp (Caco-2 permeability; Caco-2): 28.1 ×10⁻⁶ cm/s
12 | O=c1n(CCCN2CCN(c3cccc(Cl)c3)CC2)nc2ccccn12 [trazodone] |  |  |  |  | Papp (Caco-2 permeability; Caco-2 cells, read-out: mean Papp): 24.2 ×10⁻⁶ cm/s; solubility as a function of pH [3]: fully soluble only at acidic pH and precipitates at pH values close to neutrality; pKa ([3]; Monoprotic Base): 6.61; ka [4]: ER: 0.07 hr^−1; CLint, CYP3A4 (CYP3A4; Retrograde calculation, 70% of hepatic metabolism assigned to CYP3A4): 0.438 µL/min/pmol; fmCYP3A4 (CYP3A4; estimation of CYP3A4-mediated metabolism): 70%; cumulative total sleep time ([5]; actigraphy, patients showing higher exposure to trazodone): slightly longer sleep time; correlation between secondary PK parameters and relative change from baseline in total sleep time ([5]; interim analysis): correlations were observed; Inter-individual variability in clearance estimates ([5]; pediatric patients vs adult subjects, interim analysis): considerably higher than what has been observed previously in adult subject; dose proportionality of pharmacokinetics ([5]; pediatric patients, 0.25/0.4/0.5 mg/kg/day, interim analysis of 18 patients): dose-proportional; sleep time ([5]; pediatric population with NDD, 0.4 and 0.5 mg/kg/day by drops, preliminary): increase the sleep time; total sleep time ([5]; visit 3, small proportion of patients assigned to 0.4 and 0.5 mg/kg dose, actigraphy): > 9 h; Additional HLM CLint (human liver microsome): 25.7 µL/min/mg; B/P ([6]; blood to plasma, calculated from measured E:P ratio): 0.68; E:P ratio ([6]; erythrocyte to plasma ratio): of 0.2.; fup ([6]; fraction unbound in plasma, equilibrium dialysis): 0.0354
